Laboratory results reported in ChEMBL document CHEMBL1157071, “Phenolic constituents of the aerial parts of Cimicifuga simplex and Cimicifuga japonica” (J Nat Prod, 2010).

What follows are compounds tested against T1, Hyaluronidase-1 (Homo sapiens, UniProt Q12794) (assay: Inhibition of hyaluronidase).
T1 sequence (Q12794 whole entry): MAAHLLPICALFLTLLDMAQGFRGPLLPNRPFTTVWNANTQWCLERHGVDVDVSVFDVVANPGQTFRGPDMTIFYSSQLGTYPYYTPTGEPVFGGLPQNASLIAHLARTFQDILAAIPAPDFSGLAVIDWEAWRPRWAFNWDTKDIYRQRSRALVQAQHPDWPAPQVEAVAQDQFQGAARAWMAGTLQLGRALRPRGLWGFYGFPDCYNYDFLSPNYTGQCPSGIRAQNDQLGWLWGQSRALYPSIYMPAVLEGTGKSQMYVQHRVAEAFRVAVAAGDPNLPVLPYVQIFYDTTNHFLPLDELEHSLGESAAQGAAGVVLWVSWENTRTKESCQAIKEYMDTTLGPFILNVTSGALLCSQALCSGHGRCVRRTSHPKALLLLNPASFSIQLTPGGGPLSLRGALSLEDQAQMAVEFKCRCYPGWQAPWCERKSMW

Structure (SMILES)	IC50
O=C(O)/C=C/c1ccc(O)c(O)c1 [CAFFEIC ACID]	> 2000 µM
COc1cc(/C=C/C(=O)O)ccc1O [FERULATE]	> 2000 µM
O=C(/C=C/c1ccc(O)c(O)c1)O[C@H](Cc1ccc(O)c(O)c1)C(=O)O [ROSMARINIC ACID]	545 µM

Compounds with a lower IC50, results first:

IC50	Structure (SMILES)
255 µM	O=C(/C=C/c1ccc(O)cc1)O[C@H](C(=O)O)[C@](O)(Cc1ccc(O)cc1)C(=O)O [CIMICIFUGIC ACID K]
102 µM	COc1ccc(/C=C/C(=O)O[C@H](C(=O)O)[C@](O)(Cc2ccc(O)cc2)C(=O)O)cc1OC [CIMICIFUGIC ACID L]
173 µM	O=C(/C=C/c1ccc(O)c(O)c1)O[C@H](C(=O)O)[C@](O)(Cc1ccccc1)C(=O)O [CIMICIFUGIC ACID M]
120 µM	COc1ccc(/C=C\C(=O)O[C@H](C(=O)O)[C@](O)(Cc2ccc(O)c(O)c2)C(=O)O)cc1OC [CIMICIFUGIC ACID N]
